Reference: ChEMBL document CHEMBL1201861, “Genomics of Drug Sensitity in Cancer screening data, Wellcome Trust Sanger Institute”

Tests used:
Test in all cases: cells
[1] = tested on: Calu-6; assay type: functional, cell-based, Homo sapiens; conditions: Homo sapiens, Calu-6;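 further: growth of human Calu-6 cells, read out by a cell viability assay, IC50 marking inhibition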
Description: SANGER: Inhibition of human Calu-6 cell growth in a cell viability assay.

[2] = tested on: DB; assay type: functional, cell-based, Homo sapiens; conditions: Homo sapiens, DB
Description: SANGER: Inhibition of human DB cell growth in a cell viability assay.

[3] = tested on: EM-2; assay type: functional, cell-based, Homo sapiens; conditions: Homo sapiens, EM-2;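 further: growth inhibition of EM-2 cells, read out with a cell viability assay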
Description: SANGER: Inhibition of human EM-2 cell growth in a cell viability assay.

[4] = tested on: ES7; assay type: functional, cell-based, Homo sapiens; conditions: Homo sapiens, ES7;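 further: growth inhibition of cultured human ES7 cells, read out as cell viability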
Description: SANGER: Inhibition of human ES7 cell growth in a cell viability assay.

[5] = tested on: GOTO; assay type: functional, cell-based, Homo sapiens; conditions: Homo sapiens, GOTO;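 further: growth inhibition of GOTO cells, read out by a cell viability assay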
Description: SANGER: Inhibition of human GOTO cell growth in a cell viability assay.

[6] = tested on: HCE-4; assay type: functional, cell-based, Homo sapiens; conditions: Homo sapiens, HCE-4;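 further: cell viability assay measuring inhibition of growth in the human HCE-4 cell line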
Description: SANGER: Inhibition of human HCE-4 cell growth in a cell viability assay.

[7] = tested on: HDLM-2; assay type: functional, cell-based, Homo sapiens; conditions: Homo sapiens, HDLM-2;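 further: cell viability assay measuring suppression of HDLM-2 proliferation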
Description: SANGER: Inhibition of human HDLM-2 cell growth in a cell viability assay.

[8] = tested on: IST-SL1; assay type: functional, cell-based, Homo sapiens; conditions: Homo sapiens, IST-SL1;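 further: growth inhibition of human IST-SL1 cells, read out with a cell viability assay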
Description: SANGER: Inhibition of human IST-SL1 cell growth in a cell viability assay.

[9] = tested on: K562; assay type: functional, cell-based, Homo sapiens; conditions: Homo sapiens, K562
Description: SANGER: Inhibition of human K-562 cell growth in a cell viability assay.

[10] = tested on: KP-N-YS; assay type: functional, cell-based, Homo sapiens; conditions: Homo sapiens, KP-N-YS;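 further: cell viability assay measuring inhibition of cell line growth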
Description: SANGER: Inhibition of human KP-N-YS cell growth in a cell viability assay.

[11] = tested on: KS-1; assay type: functional, cell-based, Homo sapiens; conditions: Homo sapiens, KS-1;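 further: growth inhibition of KS-1 cells, read out with a cell viability assay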
Description: SANGER: Inhibition of human KS-1 cell growth in a cell viability assay.

[12] = tested on: KU812 cell line; assay type: functional, cell-based, Homo sapiens; conditions: Homo sapiens, KU812;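 further: growth inhibition of KU812 cells, read out with a cell viability assay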
Description: SANGER: Inhibition of human KU812 cell growth in a cell viability assay.

[13] = tested on: KY821; assay type: functional, cell-based, Homo sapiens; conditions: Homo sapiens, KY821;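 further: growth inhibition of human KY821 cells, read out by a cell viability assay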
Description: SANGER: Inhibition of human KY821 cell growth in a cell viability assay.

[14] = tested on: L-428; assay type: functional, cell-based, Homo sapiens; conditions: Homo sapiens, L-428
Description: SANGER: Inhibition of human L-428 cell growth in a cell viability assay.

[15] = tested on: LAN-6; assay type: functional, cell-based, Homo sapiens; conditions: Homo sapiens, LAN-6;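 further: growth inhibition of LAN-6 cells, determined with a cell viability assay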
Description: SANGER: Inhibition of human LAN-6 cell growth in a cell viability assay.

[16] = tested on: LB2241-RCC; assay type: functional, cell-based, Homo sapiens; conditions: Homo sapiens, LB2241-RCC;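 further: cell viability assay measuring how strongly the cultured human renal carcinoma line is prevented from growing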
Description: SANGER: Inhibition of human LB2241-RCC cell growth in a cell viability assay.

[17] = tested on: LS-513; assay type: functional, cell-based, Homo sapiens; conditions: Homo sapiens, LS-513
Description: SANGER: Inhibition of human LS-513 cell growth in a cell viability assay.

[18] = tested on: MFH-ino; assay type: functional, cell-based, Homo sapiens; conditions: Homo sapiens, MFH-ino;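 further: growth inhibition of human MFH-ino cells, read out by a cell viability assay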
Description: SANGER: Inhibition of human MFH-ino cell growth in a cell viability assay.

[19] = tested on: ML-2; assay type: functional, cell-based, Homo sapiens; conditions: Homo sapiens, ML-2;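 further: growth inhibition of ML-2 cells, measured with a cell viability readout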
Description: SANGER: Inhibition of human ML-2 cell growth in a cell viability assay.

[20] = tested on: MPP-89; assay type: functional, cell-based, Homo sapiens; conditions: Homo sapiens, MPP-89;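 further: growth inhibition of human MPP-89 cells, read out with a cell viability assay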
Description: SANGER: Inhibition of human MPP-89 cell growth in a cell viability assay.

[21] = tested on: MV4-11; assay type: functional, cell-based, Homo sapiens, MV-4-11; conditions: Homo sapiens, MV4-11;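 further: cell viability readout measuring growth inhibition of human MV-4-11 cells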
Description: SANGER: Inhibition of human MV-4-11 cell growth in a cell viability assay.

[22] = tested on: MZ2-MEL; assay type: functional, cell-based, Homo sapiens; conditions: Homo sapiens, MZ2-MEL;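 further: growth inhibition of MZ2-MEL cells read out with a cell viability assay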
Description: SANGER: Inhibition of human MZ2-MEL cell growth in a cell viability assay.

[23] = tested on: MZ7-mel; assay type: functional, cell-based, Homo sapiens; conditions: Homo sapiens, MZ7-mel;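 further: growth inhibition of human MZ7-mel cells, measured by a cell viability assay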
Description: SANGER: Inhibition of human MZ7-mel cell growth in a cell viability assay.

[24] = tested on: Mo; assay type: functional, cell-based, Homo sapiens; conditions: Homo sapiens, Mo
Description: SANGER: Inhibition of human Mo-T cell growth in a cell viability assay.

[25] = tested on: NB17; assay type: functional, cell-based, Homo sapiens; conditions: Homo sapiens, NB17;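 further: growth inhibition of NB17 cells, read out with a cell viability assay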
Description: SANGER: Inhibition of human NB17 cell growth in a cell viability assay.

[26] = tested on: NB69; assay type: functional, cell-based, Homo sapiens; conditions: Homo sapiens, NB69;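 further: growth inhibition of NB69 cells, determined by a cell viability assay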
Description: SANGER: Inhibition of human NB69 cell growth in a cell viability assay.

[27] = tested on: NCI-H1304; assay type: functional, cell-based, Homo sapiens; conditions: Homo sapiens, NCI-H1304;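 further: growth inhibition of the cancer cell line, measured in a cell viability assay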
Description: SANGER: Inhibition of human NCI-H1304 cell growth in a cell viability assay.

[28] = tested on: NCI-H1395; assay type: functional, cell-based, Homo sapiens; conditions: Homo sapiens, NCI-H1395;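 further: cell viability assay read-out quantifying reduced proliferation of human NCI-H1395 cells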
Description: SANGER: Inhibition of human NCI-H1395 cell growth in a cell viability assay.

[29] = tested on: NCI-H1838; assay type: functional, cell-based, Homo sapiens; conditions: Homo sapiens, NCI-H1838;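 further: growth inhibition of NCI-H1838 cells, determined with a cell viability readout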
Description: SANGER: Inhibition of human NCI-H1838 cell growth in a cell viability assay.

[30] = tested on: NCI-H2126; assay type: functional, cell-based, Homo sapiens; conditions: Homo sapiens, NCI-H2126;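 further: growth inhibition of the cancer cell line, determined with a cell viability readout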
Description: SANGER: Inhibition of human NCI-H2126 cell growth in a cell viability assay.

[31] = tested on: NCI-H720; assay type: functional, cell-based, Homo sapiens; conditions: Homo sapiens, NCI-H720;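 further: growth inhibition of human NCI-H720 cells determined by a cell viability assay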
Description: SANGER: Inhibition of human NCI-H720 cell growth in a cell viability assay.

[32] = tested on: SNU1; assay type: functional, cell-based, Homo sapiens; conditions: Homo sapiens, SNU1;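 further: growth inhibition of human NCI-SNU-1 cells, measured with a cell viability assay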
Description: SANGER: Inhibition of human NCI-SNU-1 cell growth in a cell viability assay.

[33] = tested on: NOS-1; assay type: functional, cell-based, Homo sapiens; conditions: Homo sapiens, NOS-1;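 further: growth inhibition of the human NOS-1 cell line, read out with a cell viability assay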
Description: SANGER: Inhibition of human NOS-1 cell growth in a cell viability assay.

[34] = tested on: NTERA-2-cl-D1; assay type: functional, cell-based, Homo sapiens; conditions: Homo sapiens, NTERA-2-cl-D1;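 further: inhibition of cell growth, measured with a cell viability assay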
Description: SANGER: Inhibition of human NTERA-S-cl-D1 cell growth in a cell viability assay.

[35] = tested on: OCUB-M; assay type: functional, cell-based, Homo sapiens; conditions: Homo sapiens, OCUB-M;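 further: growth inhibition of the cancer cell line, read out through a cell viability assay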
Description: SANGER: Inhibition of human OCUB-M cell growth in a cell viability assay.

[36] = tested on: ONS-76; assay type: functional, cell-based, Homo sapiens; conditions: Homo sapiens, ONS-76;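 further: growth inhibition of human ONS-76 cells, read out with a cell viability assay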
Description: SANGER: Inhibition of human ONS-76 cell growth in a cell viability assay.

[37] = tested on: P30-OHK; assay type: functional, cell-based, Homo sapiens; conditions: Homo sapiens, P30-OHK;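 further: growth inhibition of the P30-OHK cell line, read out with a cell viability assay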
Description: SANGER: Inhibition of human P30-OHK cell growth in a cell viability assay.

[38] = tested on: SF-126; assay type: functional, cell-based, Homo sapiens; conditions: Homo sapiens, SF-126;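 further: growth inhibition of human SF126 cells, read out with a cell viability assay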
Description: SANGER: Inhibition of human SF126 cell growth in a cell viability assay.

[39] = tested on: SF-539; assay type: functional, cell-based, Homo sapiens; conditions: Homo sapiens, SF-539;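 further: Read-out is a cell viability assay, with IC50 reflecting inhibition of cell growth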
Description: SANGER: Inhibition of human SF539 cell growth in a cell viability assay.

[40] = tested on: SW872; assay type: functional, cell-based, Homo sapiens; conditions: Homo sapiens, SW872;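 further: growth inhibition of SW872 cells, read out by a viability assay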
Description: SANGER: Inhibition of human SW872 cell growth in a cell viability assay.

[41] = tested on: 697; assay type: functional, cell-based, Homo sapiens; conditions: Homo sapiens
Description: SANGER: Inhibition of human 697 cell growth in a cell viability assay.

[42] = tested on: 8-MG-BA; assay type: functional, cell-based, Homo sapiens; conditions: Homo sapiens, 8-MG-BA;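 further: growth inhibition of 8-MG-BA cells, read out with a cell viability assay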
Description: SANGER: Inhibition of human 8-MG-BA cell growth in a cell viability assay.

[43] = tested on: A253 cell line; assay type: functional, cell-based, Homo sapiens; conditions: Homo sapiens, A253;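 further: growth inhibition of A253 cells, read out with a cell viability assay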
Description: SANGER: Inhibition of human A253 cell growth in a cell viability assay.

[44] = tested on: A3-KAW; assay type: functional, cell-based, Homo sapiens; conditions: Homo sapiens, A3-KAW;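 further: growth inhibition of human A3-KAW cells, read out with a cell viability assay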
Description: SANGER: Inhibition of human A3-KAW cell growth in a cell viability assay.

[45] = tested on: BB49-HNC; assay type: functional, cell-based, Homo sapiens; conditions: Homo sapiens, BB49-HNC;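 further: cell viability assay read-out, reported as inhibition of BB49-HNC cell growth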
Description: SANGER: Inhibition of human BB49-HNC cell growth in a cell viability assay.

[46] = tested on: TGBC1TKB; assay type: functional, cell-based, Homo sapiens; conditions: Homo sapiens, TGBC1TKB;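 further: growth inhibition of TGBC1TKB cells, read out by a cell viability assay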
Description: SANGER: Inhibition of human TGBC1TKB cell growth in a cell viability assay.

[47] = tested on: CAS-1; assay type: functional, cell-based, Homo sapiens; conditions: Homo sapiens, CAS-1;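 further: growth inhibition of CAS-1 cells, measured with a cell viability assay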
Description: SANGER: Inhibition of human CAS-1 cell growth in a cell viability assay.

[48] = tested on: CGTH-W-1; assay type: functional, cell-based, Homo sapiens; conditions: Homo sapiens, CGTH-W-1;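 further: growth inhibition of human CGTH-W-1 cells measured by cell viability assay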
Description: SANGER: Inhibition of human CGTH-W-1 cell growth in a cell viability assay.

## COc1cc(-c2nn([C@H]3CC[C@H](N4CCN(C(C)=O)CC4)CC3)c3ncnc(N)c23)ccc1NC(=O)c1cc2ccccc2n1C
[1]
  IC50: > 5120 nM
[2]
  IC50: > 5120 nM
[3]
  IC50: 337 nM
[4]
  IC50: > 5120 nM
[5]
  IC50: > 5120 nM
[6]
  IC50: 2340 nM
[7]
  IC50: > 5120 nM
[8]
  IC50: > 5120 nM
[9]
  IC50: 392 nM
[10]
  IC50: > 5120 nM
[11]
  IC50: 1030 nM
[12]
  IC50: > 5120 nM
[13]
  IC50: 3650 nM
[14]
  IC50: > 5120 nM
[15]
  IC50: > 5120 nM
[16]
  IC50: > 5120 nM
[17]
  IC50: > 5120 nM
[18]
  IC50: 1160 nM
[19]
  IC50: > 5120 nM
[20]
  IC50: > 5120 nM
[21]
  IC50: > 5120 nM
[22]
  IC50: > 5120 nM
[23]
  IC50: > 5120 nM
[24]
  IC50: > 5120 nM
[25]
  IC50: > 5120 nM
[26]
  IC50: 3290 nM
[27]
  IC50: > 5120 nM
[28]
  IC50: > 5120 nM
[29]
  IC50: > 5120 nM
[30]
  IC50: > 5120 nM
[31]
  IC50: > 5120 nM
[32]
  IC50: > 5120 nM
[33]
  IC50: 196 nM
[34]
  IC50: > 5120 nM
[35]
  IC50: 5030 nM
[36]
  IC50: > 5120 nM
[37]
  IC50: > 5120 nM
[38]
  IC50: > 5120 nM
[39]
  IC50: > 5120 nM
[40]
  IC50: 452 nM
[41]
  IC50: 1730 nM
[42]
  IC50: 4610 nM
[43]
  IC50: > 5120 nM
[44]
  IC50: > 5120 nM
[45]
  IC50: > 5120 nM
[46]
  IC50: 3630 nM
[47]
  IC50: > 5120 nM
[48]
  IC50: > 5120 nM

## OCCCNc1cc(-c2ccnc(Nc3cccc(Cl)c3)n2)ccn1
[1]
  IC50: > 256 nM
[2]
  IC50: 138 nM
[3]
  IC50: 176 nM
[4]
  IC50: > 256 nM
[5]
  IC50: 74.9 nM
[6]
  IC50: > 256 nM
[7]
  IC50: > 256 nM
[8]
  IC50: 147 nM
[9]
  IC50: > 256 nM
[10]
  IC50: > 256 nM
[11]
  IC50: 14 nM
[12]
  IC50: 45 nM
[13]
  IC50: 90.5 nM
[14]
  IC50: 112 nM
[15]
  IC50: 149 nM
[16]
  IC50: > 256 nM
[17]
  IC50: > 256 nM
[18]
  IC50: 80.7 nM
[19]
  IC50: > 256 nM
[20]
  IC50: 90.4 nM
[21]
  IC50: 43.1 nM
[22]
  IC50: 62.7 nM
[23]
  IC50: > 256 nM
[24]
  IC50: > 256 nM
[25]
  IC50: 88.7 nM
[26]
  IC50: > 256 nM
[27]
  IC50: 104 nM
[28]
  IC50: > 256 nM
[29]
  IC50: > 256 nM
[30]
  IC50: > 256 nM
[31]
  IC50: > 256 nM
[32]
  IC50: > 256 nM
[33]
  IC50: 19.6 nM
[34]
  IC50: 50.8 nM
[35]
  IC50: 52.5 nM
[36]
  IC50: 76.1 nM
[37]
  IC50: > 256 nM
[38]
  IC50: 134 nM
[39]
  IC50: > 256 nM
[40]
  IC50: 26.6 nM
[41]
  IC50: 19.7 nM
[42]
  IC50: 56 nM
[43]
  IC50: 64.9 nM
[44]
  IC50: 19.9 nM
[45]
  IC50: 96.3 nM
[46]
  IC50: 23.6 nM
[47]
  IC50: > 256 nM
[48]
  IC50: 79.8 nM
